# Measured values as given in article PMC9719519, “Non-classical ferroptosis inhibition by a small molecule targeting PHB2” (Nature Communications, 2022).
# Assays:
# Test in all cases: biochemical
# Parameters in all cases: Eurofins recombinant human kinase profiling, remaining kinase activity as % of control, 10 uM ATP
# Conditions in all cases: ATP 10 uM; read-out: %Ctrl@10 μM
# [1] = target: T1, PKCζ(h) (Homo sapiens, UniProt Q05513)
# T1 construct: gene PRKCZ
# How it was run: (§1)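 Activity measured in a commercial panel of 401 recombinant human protein kinases run as a kinase profiling service.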
# [2] = target: T2, MSK1(h) (Homo sapiens, UniProt O75582)
# T2 construct: gene RPS6KA5
# How it was run: as §1
# [3] = target: FGFR1(h) (Homo sapiens, UniProt P11362)
# Sequence of FGFR1(h) (P11362 whole entry): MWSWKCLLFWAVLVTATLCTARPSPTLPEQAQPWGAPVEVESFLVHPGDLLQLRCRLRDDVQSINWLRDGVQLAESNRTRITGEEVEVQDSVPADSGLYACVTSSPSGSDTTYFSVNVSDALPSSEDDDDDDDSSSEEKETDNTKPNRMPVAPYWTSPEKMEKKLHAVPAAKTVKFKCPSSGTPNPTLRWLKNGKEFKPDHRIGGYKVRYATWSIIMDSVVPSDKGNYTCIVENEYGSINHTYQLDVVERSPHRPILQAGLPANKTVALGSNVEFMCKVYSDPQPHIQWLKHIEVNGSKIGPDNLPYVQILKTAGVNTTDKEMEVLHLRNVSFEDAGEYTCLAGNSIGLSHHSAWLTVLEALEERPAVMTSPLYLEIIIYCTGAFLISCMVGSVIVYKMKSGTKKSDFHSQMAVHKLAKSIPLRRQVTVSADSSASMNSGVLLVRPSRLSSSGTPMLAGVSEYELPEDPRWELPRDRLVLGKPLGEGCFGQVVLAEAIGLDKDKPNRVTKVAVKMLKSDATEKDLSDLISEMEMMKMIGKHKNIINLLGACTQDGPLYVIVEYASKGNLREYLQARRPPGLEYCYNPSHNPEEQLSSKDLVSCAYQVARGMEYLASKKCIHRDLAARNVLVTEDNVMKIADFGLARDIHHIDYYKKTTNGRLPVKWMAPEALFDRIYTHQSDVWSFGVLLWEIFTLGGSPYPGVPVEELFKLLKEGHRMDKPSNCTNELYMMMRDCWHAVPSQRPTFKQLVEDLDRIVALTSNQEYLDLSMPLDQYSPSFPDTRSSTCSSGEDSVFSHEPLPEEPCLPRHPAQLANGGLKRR
# How it was run: as §1
# [4] = target: CDKL3(h) (Homo sapiens, UniProt Q8IVW4)
# Sequence of CDKL3(h) (Q8IVW4 whole entry): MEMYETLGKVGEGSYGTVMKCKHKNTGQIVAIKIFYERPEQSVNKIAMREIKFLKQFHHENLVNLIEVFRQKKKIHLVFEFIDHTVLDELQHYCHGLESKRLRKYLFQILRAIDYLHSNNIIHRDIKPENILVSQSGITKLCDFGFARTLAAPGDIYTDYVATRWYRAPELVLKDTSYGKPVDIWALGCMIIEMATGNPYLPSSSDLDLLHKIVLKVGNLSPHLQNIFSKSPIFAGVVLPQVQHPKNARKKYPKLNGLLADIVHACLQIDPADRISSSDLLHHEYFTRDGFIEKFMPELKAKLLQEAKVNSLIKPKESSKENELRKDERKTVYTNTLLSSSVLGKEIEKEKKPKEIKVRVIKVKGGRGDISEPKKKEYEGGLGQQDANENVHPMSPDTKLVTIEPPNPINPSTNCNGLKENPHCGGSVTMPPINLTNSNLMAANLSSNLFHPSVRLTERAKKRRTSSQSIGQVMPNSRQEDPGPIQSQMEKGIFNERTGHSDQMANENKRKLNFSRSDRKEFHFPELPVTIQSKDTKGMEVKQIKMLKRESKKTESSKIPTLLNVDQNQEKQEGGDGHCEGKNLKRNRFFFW
# How it was run: as §1
# [5] = target: MARK3(h) (Homo sapiens, UniProt P27448)
# How it was run: as §1
# [6] = target: Plk4(h) (Homo sapiens, UniProt O00444)
# How it was run: as §1
# [7] = target: T3, Pyk2(h) (Homo sapiens, UniProt Q14289)
# T3 construct: gene PTK2B
# T3 sequence (Q14289 whole entry): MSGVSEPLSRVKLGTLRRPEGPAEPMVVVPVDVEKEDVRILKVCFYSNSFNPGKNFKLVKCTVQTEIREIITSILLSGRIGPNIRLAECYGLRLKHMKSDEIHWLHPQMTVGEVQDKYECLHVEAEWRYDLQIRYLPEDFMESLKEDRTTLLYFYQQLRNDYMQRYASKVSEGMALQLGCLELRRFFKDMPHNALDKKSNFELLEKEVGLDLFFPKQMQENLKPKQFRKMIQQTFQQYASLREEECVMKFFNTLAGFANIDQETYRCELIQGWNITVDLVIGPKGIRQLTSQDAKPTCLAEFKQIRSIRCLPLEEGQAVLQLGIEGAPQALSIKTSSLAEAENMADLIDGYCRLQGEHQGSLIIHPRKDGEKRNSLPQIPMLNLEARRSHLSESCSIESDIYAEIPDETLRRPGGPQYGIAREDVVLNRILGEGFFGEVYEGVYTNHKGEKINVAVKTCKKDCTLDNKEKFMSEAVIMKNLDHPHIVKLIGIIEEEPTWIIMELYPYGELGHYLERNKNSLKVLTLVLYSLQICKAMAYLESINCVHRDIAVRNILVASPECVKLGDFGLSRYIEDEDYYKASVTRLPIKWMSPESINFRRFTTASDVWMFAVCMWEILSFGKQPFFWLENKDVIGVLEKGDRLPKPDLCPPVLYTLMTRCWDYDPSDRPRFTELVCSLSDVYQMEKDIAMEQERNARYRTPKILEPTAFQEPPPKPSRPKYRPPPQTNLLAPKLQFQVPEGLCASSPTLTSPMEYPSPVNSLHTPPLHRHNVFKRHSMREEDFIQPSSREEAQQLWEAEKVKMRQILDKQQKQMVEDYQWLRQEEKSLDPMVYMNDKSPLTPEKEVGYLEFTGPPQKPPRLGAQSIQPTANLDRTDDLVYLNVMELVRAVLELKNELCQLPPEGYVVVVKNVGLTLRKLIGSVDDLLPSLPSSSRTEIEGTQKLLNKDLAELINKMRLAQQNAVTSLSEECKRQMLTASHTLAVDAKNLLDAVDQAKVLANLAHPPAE
# How it was run: as §1
# [8] = target: ULK3(h) (Homo sapiens, UniProt Q6PHR2)
# Sequence of ULK3(h) (Q6PHR2 whole entry): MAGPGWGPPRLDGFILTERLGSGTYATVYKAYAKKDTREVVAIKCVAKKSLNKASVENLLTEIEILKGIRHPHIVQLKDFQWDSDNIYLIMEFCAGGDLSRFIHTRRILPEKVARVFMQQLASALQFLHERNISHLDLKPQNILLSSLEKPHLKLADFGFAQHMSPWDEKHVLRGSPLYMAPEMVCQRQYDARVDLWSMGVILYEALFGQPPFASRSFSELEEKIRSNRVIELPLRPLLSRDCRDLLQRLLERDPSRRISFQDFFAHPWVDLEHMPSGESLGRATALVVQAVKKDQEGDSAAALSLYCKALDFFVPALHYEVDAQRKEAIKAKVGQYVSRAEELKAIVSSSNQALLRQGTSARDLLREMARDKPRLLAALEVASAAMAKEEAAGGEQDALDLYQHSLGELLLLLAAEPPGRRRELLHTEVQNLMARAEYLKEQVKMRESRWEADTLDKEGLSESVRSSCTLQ
# How it was run: as §1
# [9] = target: Fyn(h) (Homo sapiens, UniProt P06241)
# How it was run: as §1
# [10] = target: T4, Abl(h) (Homo sapiens, UniProt P00519)
# T4 construct: gene ABL1
# How it was run: as §1
# [11] = target: EphA8(h) (Homo sapiens, UniProt P29322)
# Sequence of EphA8(h) (P29322 whole entry): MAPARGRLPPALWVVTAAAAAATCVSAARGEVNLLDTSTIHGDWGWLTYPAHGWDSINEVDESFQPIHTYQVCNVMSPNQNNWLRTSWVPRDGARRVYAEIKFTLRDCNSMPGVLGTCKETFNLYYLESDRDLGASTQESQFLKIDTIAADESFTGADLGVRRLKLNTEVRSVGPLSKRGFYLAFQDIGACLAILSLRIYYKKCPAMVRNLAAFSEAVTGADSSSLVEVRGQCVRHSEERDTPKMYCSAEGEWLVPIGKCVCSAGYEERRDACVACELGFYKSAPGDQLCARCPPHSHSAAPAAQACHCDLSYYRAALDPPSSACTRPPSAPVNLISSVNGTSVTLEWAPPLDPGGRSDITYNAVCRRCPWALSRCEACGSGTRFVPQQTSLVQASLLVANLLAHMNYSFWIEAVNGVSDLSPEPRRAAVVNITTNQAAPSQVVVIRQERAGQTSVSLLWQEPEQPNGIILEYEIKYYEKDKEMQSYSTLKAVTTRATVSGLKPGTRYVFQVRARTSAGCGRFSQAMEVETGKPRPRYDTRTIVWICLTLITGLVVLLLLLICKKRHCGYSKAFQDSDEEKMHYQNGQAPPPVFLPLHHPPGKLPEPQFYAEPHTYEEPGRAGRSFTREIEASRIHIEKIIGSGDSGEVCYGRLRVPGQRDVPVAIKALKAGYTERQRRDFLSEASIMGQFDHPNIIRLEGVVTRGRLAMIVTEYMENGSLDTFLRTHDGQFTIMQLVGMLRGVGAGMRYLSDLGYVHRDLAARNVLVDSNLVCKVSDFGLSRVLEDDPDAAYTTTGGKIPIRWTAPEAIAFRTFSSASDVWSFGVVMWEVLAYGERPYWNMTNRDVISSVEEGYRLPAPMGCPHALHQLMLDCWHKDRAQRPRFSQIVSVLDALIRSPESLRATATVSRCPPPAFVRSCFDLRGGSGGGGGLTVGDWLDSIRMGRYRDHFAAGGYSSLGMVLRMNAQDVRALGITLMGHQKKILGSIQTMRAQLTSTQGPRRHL
# How it was run: as §1
# [12] = target: TSSK2(h) (Homo sapiens, UniProt Q96PF2)
# How it was run: as §1
# [13] = target: ATR/ATRIP(h) (Homo sapiens, UniProt Q13535)
# How it was run: as §1
# [14] = target: T5, MKK3(h) (Homo sapiens, UniProt P46734)
# T5 construct: gene MAP2K3
# T5 sequence (P46734 whole entry): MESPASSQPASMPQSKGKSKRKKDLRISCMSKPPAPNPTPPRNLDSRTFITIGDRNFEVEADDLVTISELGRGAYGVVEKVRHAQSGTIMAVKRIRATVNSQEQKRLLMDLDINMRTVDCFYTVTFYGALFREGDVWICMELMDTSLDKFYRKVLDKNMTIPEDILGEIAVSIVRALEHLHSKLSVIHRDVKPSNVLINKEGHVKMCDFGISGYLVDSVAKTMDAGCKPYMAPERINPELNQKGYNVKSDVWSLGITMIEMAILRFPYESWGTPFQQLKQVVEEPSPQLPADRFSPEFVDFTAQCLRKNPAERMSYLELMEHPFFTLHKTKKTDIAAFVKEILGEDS
# How it was run: as §1
# [15] = target: T6, SAPK2a(h) (Homo sapiens, UniProt Q16539)
# T6 construct: gene MAPK14
# How it was run: as §1
# [16] = target: T7, CaMKIγ(h) (Homo sapiens, UniProt Q96NX5)
# T7 construct: gene CAMK1G
# How it was run: as §1
# [17] = target: MAP4K4(h) (Homo sapiens, UniProt O95819)
# How it was run: as §1
# [18] = target: SLK(h) (Homo sapiens, UniProt Q9H2G2)
# How it was run: as §1
# [19] = target: MARK4(h) (Homo sapiens, UniProt Q96L34)
# How it was run: as §1
# [20] = target: Flt3(D835Y)(h) (Homo sapiens, UniProt P36888, D835Y)
# How it was run: as §1
# [21] = target: Fes(h) (Homo sapiens, UniProt P07332)
# How it was run: as §1
# [22] = target: JAK1(h) (Homo sapiens, UniProt P23458)
# How it was run: as §1
# [23] = target: T8, Aurora-B(h) (Homo sapiens, UniProt Q96GD4)
# T8 construct: gene AURKB
# How it was run: as §1
# T1 sequence (Q05513 whole entry): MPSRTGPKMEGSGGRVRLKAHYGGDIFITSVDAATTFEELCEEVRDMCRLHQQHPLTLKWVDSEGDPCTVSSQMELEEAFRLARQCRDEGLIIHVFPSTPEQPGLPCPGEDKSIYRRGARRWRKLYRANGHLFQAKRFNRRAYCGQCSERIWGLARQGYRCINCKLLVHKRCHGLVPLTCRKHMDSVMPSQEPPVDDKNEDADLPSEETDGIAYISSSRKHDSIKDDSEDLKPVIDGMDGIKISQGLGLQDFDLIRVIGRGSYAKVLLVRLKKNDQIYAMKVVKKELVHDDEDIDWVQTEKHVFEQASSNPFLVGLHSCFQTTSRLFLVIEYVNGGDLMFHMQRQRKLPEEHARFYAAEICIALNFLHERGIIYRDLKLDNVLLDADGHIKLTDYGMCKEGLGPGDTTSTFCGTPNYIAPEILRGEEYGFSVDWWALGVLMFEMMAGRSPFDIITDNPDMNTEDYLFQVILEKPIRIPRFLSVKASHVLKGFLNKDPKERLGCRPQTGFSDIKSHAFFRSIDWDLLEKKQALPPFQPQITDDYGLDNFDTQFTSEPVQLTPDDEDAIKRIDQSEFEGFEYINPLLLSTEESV
compound,measurement,setting,value
C1=C(c2nc(-c3cnn(C4CCNCC4)c3)cn3cc(-c4ccccc4)nc23)CCOC1 [YL-939],remaining activity at 10 µM,[1],94%
same,remaining activity at 10 µM,[2],79%
same,remaining activity at 10 µM,[3],115%
same,remaining activity at 10 µM,[4],82%
same,remaining activity at 10 µM,[5],80%
same,remaining activity at 10 µM,[6],88%
same,remaining activity at 10 µM,[7],108%
same,remaining activity at 10 µM,[8],68%
same,remaining activity at 10 µM,[9],81%
same,remaining activity at 10 µM,[10],102%
same,remaining activity at 10 µM,[11],76%
same,remaining activity at 10 µM,[12],83%
same,remaining activity at 10 µM,[13],88%
same,remaining activity at 10 µM,[14],107%
same,remaining activity at 10 µM,[15],103%
same,remaining activity at 10 µM,[16],108%
same,remaining activity at 10 µM,[17],86%
same,remaining activity at 10 µM,[18],70%
same,remaining activity at 10 µM,[19],111%
same,remaining activity at 10 µM,[20],95%
same,remaining activity at 10 µM,[21],86%
same,remaining activity at 10 µM,[22],66%
same,remaining activity at 10 µM,[23],89%
